Here are results for twelve compounds from US6348445B1, “Biologically active peptides with reduced toxicity in animals and a method for preparing same” (priority 1992, dated 2002).

Assay type in all cases: cell-based
For assay [1], the system named is E. coli ATCC strain 25922. The assay can be described thus: Minimal Inhibitory Concentration, microtiter broth dilution. The note with it: ATCC strain 25922. In short, it runs like this: (§1)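 Peptides serially diluted 1:2 to final 0.25–256 μg/ml in Mueller Hinton broth, inoculated with 1-5×10^5 CFUs/ml from mid-log culture. Incubated 16-20 hours at 37° C. MIC = lowest peptide concentration giving a clear well.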
Background: Dilution methods test growth across graded concentrations, often in twofold steps.

Assay [2] deals with P. aeruginosa strain ATCC 27853. The note with it: ATCC 27853. An outline of the steps:
as §1

The test system of assay [3] is C. albicans. An outline of the steps:
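Peptides serially diluted 1:2 to final 0.25–256 μg/ml; inoculum 1-5×10^5 CFU/ml from mid-log culture in full-strength Mueller Hinton broth. Incubated 16-20 h at 37° C. MIC taken as lowest peptide concentration giving a clear well.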

Where a SMILES comes first, the peptide text is derived from it. [ ]: non-standard residue; d: D form. The star is where a group is joined. Ibuprofenoyl = CC(C)Cc1ccc(C(C)C(=O)*)cc1; Octanoyl = CCCCCCCC(=O)*; Orn = NCCC[C@H](N)C(=O)O; Hexanoyl = CCCCCC(=O)*

For `CCCCCCCC(=O)N[C@@H](CCCNC(=N)N)C(=O)N[C@@H](Cc1ccccc1)C(=O)N[C@@H](C)C(=O)N[C@@H](CCCNC(=N)N)C(=O)N[C@@H](CCCNC(=N)N)C(=O)N[C@@H](Cc1ccccc1)C(=O)N[C@@H](C)C(=O)N[C@@H](CCCNC(=N)N)C(=O)N[C@@H](Cc1ccccc1)C(=O)N[C@@H](C)C(=O)N[C@@H](CCCNC(=N)N)C(=O)N[C@@H](CCCNC(=N)N)C(=O)N[C@@H](Cc1ccccc1)C(=O)N[C@@H](C)C(N)=O` [Oct-(SEQ ID NO: 126)-NH2] (Octanoyl-RFARRFARFARRFA-NH2), the “Minimal Inhibitory Concentration E” value in assay [1] came to 8 µg/mL. Besides, in assay [2], the “Minimal Inhibitory Concentration P” value amounted to 8 µg/mL. In assay [3], the “Minimal Inhibitory Concentration CA” value came to 64 µg/mL.
For `CC[C@H](C)[C@H](NC(=O)[C@H](CCCCN)NC(=O)CNC(=O)[C@H](C)NC(=O)[C@@H](NC(=O)[C@H](CCCCN)NC(=O)[C@H](C)NC(=O)[C@@H](NC(=O)[C@H](CCCCN)NC(=O)CNC(=O)[C@H](C)NC(=O)[C@@H](NC(=O)[C@H](CCCCN)NC(=O)[C@H](C)NC(=O)[C@@H](NC(=O)[C@H](CCCCN)NC(=O)CNC(=O)[C@H](C)NC(=O)[C@@H](NC(=O)[C@H](CCCCN)NC(=O)C(C)c1ccc(CC(C)C)cc1)[C@@H](C)CC)[C@@H](C)CC)[C@@H](C)CC)[C@@H](C)CC)[C@@H](C)CC)C(=O)N[C@@H](C)C(N)=O` (stereo partly drawn) [Ibu-(SEQ ID NO: 27)-NH2] (Ibuprofenoyl-KIAGKIAKIAGKIAKIAGKIA-NH2), the “Minimal Inhibitory Concentration E” value in assay [1] worked out at 8 µg/mL. For the same compound, in assay [2], the “Minimal Inhibitory Concentration P” value was found to be 4 µg/mL. Moreover, the “Minimal Inhibitory Concentration CA” value in assay [3] is 128 µg/mL.
Consider `CCCCCCCC(=O)N[C@@H](CCCNC(=N)N)C(=O)N[C@@H](Cc1ccccc1)C(=O)N[C@@H](C)C(=O)N[C@@H](CCCNC(=N)N)C(=O)N[C@@H](CCCNC(=N)N)C(=O)N[C@@H](Cc1ccccc1)C(=O)N[C@@H](C)C(N)=O` [Oct-(SEQ ID NO: 120)-NH2] (Octanoyl-RFARRFA-NH2), for which the “Minimal Inhibitory Concentration E” value in assay [1] came out at 256 µg/mL. In assay [2], the “Minimal Inhibitory Concentration P” value is 128 µg/mL. Moreover, the “Minimal Inhibitory Concentration CA” value in assay [3] turned out to be 64 µg/mL.
With `CCCCCCCC(=O)N[C@@H](CC(C)C)C(=O)N[C@@H](CCCN)C(=O)N[C@@H](CCCN)C(=O)N[C@@H](CC(C)C)C(=O)N[C@@H](CC(C)C)C(=O)N[C@@H](CCCN)C(=O)N[C@@H](CCCN)C(=O)N[C@@H](CC(C)C)C(=O)N[C@@H](CCCN)C(=O)N[C@@H](CCCN)C(=O)N[C@@H](CC(C)C)C(N)=O` [Oct-(SEQ ID NO: 142)-NH2] (Octanoyl-L[Orn][Orn]LL[Orn][Orn]L[Orn][Orn]L-NH2), in assay [1], the “Minimal Inhibitory Concentration E” value was found to be 8 µg/mL. Also, in assay [2], the “Minimal Inhibitory Concentration P” value stood at 2 µg/mL. The “Minimal Inhibitory Concentration CA” value in assay [3] amounted to 32 µg/mL.
For `CCCCCCCC(=O)N[C@H](C(=O)N[C@@H](CCCCN)C(=O)N[C@@H](CCCCN)C(=O)N[C@@H](CC(C)C)C(=O)N[C@@H](CC(C)C)C(=O)N[C@@H](CCCCN)C(=O)N[C@@H](CCCCN)C(=O)N[C@@H](CC(C)C)C(=O)N[C@@H](CCCCN)C(=O)N[C@@H](CCCCN)C(=O)N[C@@H](CC(C)C)C(N)=O)C(C)C` [Oct-(SEQ ID NO: 146)-NH2] (Octanoyl-VKKLLKKLKKL-NH2) the same measures were 16 µg/mL, 4 µg/mL and 32 µg/mL.
Take “H-GIKKFLKKAGKFGKAF-NH2 [(SEQ ID NO: 149)-NH2]”: the “Minimal Inhibitory Concentration E” value in assay [1] is 32 µg/mL. Besides, in assay [2], the “Minimal Inhibitory Concentration P” value stood at 32 µg/mL. The “Minimal Inhibitory Concentration CA” value in assay [3] turned out to be 64 µg/mL.
As to `CCCCCCCC(=O)N[C@@H](CCCCN)C(=O)N[C@@H](Cc1ccccc1)C(=O)N[C@@H](C)C(=O)N[C@@H](CCCCN)C(=O)N[C@@H](Cc1ccccc1)C(=O)N[C@@H](C)C(=O)N[C@@H](CCCCN)C(=O)N[C@@H](CCCCN)C(=O)N[C@@H](Cc1ccccc1)C(=O)N[C@@H](C)C(N)=O` [Oct-(SEQ ID NO: 121)-NH2] (Octanoyl-KFAKFAKKFA-NH2), the “Minimal Inhibitory Concentration E” value in assay [1] was found to be 256 µg/mL. In addition, in assay [2], the “Minimal Inhibitory Concentration P” value turned out to be 256 µg/mL. Also, in assay [3], the “Minimal Inhibitory Concentration CA” value worked out at 256 µg/mL.
Turning to `CCCCCCCC(=O)N[C@@H](CCCCN)C(=O)N[C@@H](CCCCN)C(=O)N[C@@H](Cc1ccccc1)C(=O)N[C@@H](C)C(=O)N[C@@H](CCCCN)C(=O)N[C@@H](Cc1ccccc1)C(=O)N[C@@H](C)C(=O)N[C@@H](CCCCN)C(=O)N[C@@H](CCCCN)C(=O)N[C@@H](Cc1ccccc1)C(=O)N[C@@H](C)C(N)=O` [Oct-(SEQ ID NO: 122)-NH2] (Octanoyl-KKFAKFAKKFA-NH2), the “Minimal Inhibitory Concentration E” value in assay [1] amounted to 64 µg/mL. Moreover, in assay [2], the “Minimal Inhibitory Concentration P” value worked out at 32 µg/mL. Moreover, in assay [3], the “Minimal Inhibitory Concentration CA” value was found to be 64 µg/mL.
With `CCCCCC(=O)N[C@@H](CC(C)C)C(=O)N[C@@H](CCCCN)C(=O)N[C@@H](CCCCN)C(=O)N[C@@H](CC(C)C)C(=O)N[C@@H](CC(C)C)C(=O)N[C@@H](CCCCN)C(=O)N[C@@H](CCCCN)C(=O)N[C@@H](CC(C)C)C(=O)N[C@@H](CCCCN)C(=O)N[C@@H](CCCCN)C(=O)N[C@@H](CC(C)C)C(N)=O` [Hex-(SEQ ID NO: 110)-NH2] (Hexanoyl-LKKLLKKLKKL-NH2), in assay [1], the “Minimal Inhibitory Concentration E” value is 16 µg/mL. For the same compound, in assay [2], the “Minimal Inhibitory Concentration P” value came to 8 µg/mL. Moreover, in assay [3], the “Minimal Inhibitory Concentration CA” value was determined as 64 µg/mL.
For `CCCCCCCC(=O)N[C@@H](CC(C)C)C(=O)N[C@@H](CCCCN)C(=O)N[C@@H](CCCCN)C(=O)N[C@@H](CC(C)C)C(=O)N[C@@H](CC(C)C)C(=O)N[C@@H](CCCCN)C(=O)N[C@@H](CC(C)C)C(=O)N[C@@H](CC(C)C)C(=O)N[C@@H](CCCCN)C(N)=O` [Oct-(SEQ ID NO: 138)-NH2] (Octanoyl-LKKLLKLLK-NH2) the same measures were 8 µg/mL, 8 µg/mL and 64 µg/mL.
For `CCCCCCCC(=O)N[C@@H](CCCNC(=N)N)C(=O)N[C@@H](CC(C)C)C(=O)N[C@@H](CC(C)C)C(=O)N[C@@H](CCCNC(=N)N)C(=O)N[C@@H](CCCNC(=N)N)C(=O)N[C@@H](CC(C)C)C(=O)N[C@@H](CCCNC(=N)N)C(=O)N[C@@H](CCCNC(=N)N)C(=O)N[C@@H](CC(C)C)C(N)=O` [Oct-(SEQ ID NO: 145)-NH2] (Octanoyl-RLLRRLRRL-NH2) the same measures were 16 µg/mL, 8 µg/mL and 64 µg/mL.
As to `CCCCCCCC(=O)N[C@@H](CCCCN)C(=O)N[C@H](C(=O)N[C@@H](C)C(=O)N[C@@H](CCCCN)C(=O)N[C@@H](CCCCN)C(=O)N[C@H](C(=O)N[C@@H](C)C(N)=O)[C@@H](C)CC)[C@@H](C)CC` [Oct-(SEQ ID NO: 119)-NH2] (Octanoyl-KIAKKIA-NH2), the “Minimal Inhibitory Concentration E” value in assay [1] is greater than 256 µg/mL. In assay [2], the “Minimal Inhibitory Concentration P” value was greater than 256 µg/mL. Also, in assay [3], the “Minimal Inhibitory Concentration CA” value is greater than 256 µg/mL.
